The results in this text go back to patent US9868737B2, “Pyridino[1,2-A]pyrimidone analogue used as MTOR/P13K inhibitor” (CISEN PHARMACEUTICAL CO., LTD., priority 2014, dated 2018).

Each structure is given as a SMILES string. Read-outs that look alike come from different tables or passages of the source. A value given as a limit tells only on which side of the number the result lay.

One assay has as its target T1, PI3K (p110α) kinase (Homo sapiens, UniProt P42336).
T1 construct: made in house
The assay is described as follows: PI3K (p110α) kinase assay (PI3K HTRF Assay). The assay is classed as biochemical. Conditions: in vitro enzyme activity assay, 10 μM PIP2, read-out: PI3K (p110α) enzyme activity_IC50. The text has this: Conclusion: The compounds of the present invention have significant inhibitory effect on mTOR/PI3K. Example In Vitro Enzyme Activity Assay 1. The experimental procedures and methods of PI3K (p110α) kinase assay: 1) Experimental Objective
The objective was to evaluate the inhibitory effect of the subject samples on PI3K (p110α) kinase activity at molecular level.
(§1) PerkinElmer Envision 2104 Multilabel Reader.
PI 3-Kinase HTRF Assay (384 wells) was purchased from Upstate (Millipore) company: PI3K (p110α) kinase was made in our lab.
c) Experimental procedures
Each solution was prepared according to the instructions provided in the Kinase PI 3-Kinase HTRF Assay. The kinase reaction was carried out in white 384-well plates (Proxiplate-384 plus), 0.5 μl of DMSO (the concentration was consistent with the highest concentration of DMSO for the test compounds) was added to each of the two control wells with and without enzyme, and then 0.5 μl of a series of different concentrations of the test compounds was added to each well to be tested. The kinase reaction liquid (10 μM substrate PIP2, 0.5 ng PI3K (p110α)) was added to the control well containing enzyme and the test wells, while only working reaction liquid (10 μM substrate PIP2) was added to the control well without enzyme, and finally, 5 μM ATP working reaction liquid was added to activate the reaction. After the reaction was carried out at room temperature for 30 min, the stop solution was added to each well to terminate the kinase reaction. After the mixture was fully mixed, the detection liquid was added to each well and fully mixed. The plate was sealed with Parafilm and placed in the dark. After incubated overnight, the mixture was detected.
(§2) The IC50 value was calculated through the GraphPad software after plotting the relative inhibitory rate versus concentration.
A general note: Time-resolved FRET reads energy transfer from a long-lived donor to a nearby acceptor.

Another assay has as its system MCF-7 cells. The assay is described as follows: In vitro test of cell activity (MCF-7 cells, insulin stimulation, ELISA-One fluorescence). In kind it is cell-based. Particulars: Homo sapiens, MCF7, MCF-7 cells; for inhibition at 1 µM: conc. 1 μM; for inhibition at 0.5 µM: conc. 0.5 μM; for inhibition at 0.25 µM: conc. 0.25 μM. A digest of the protocol:
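MCF-7 cells, seeded at 2.5×10^4/well in 10% FBS medium, were given compound in serum-free medium for 2 h at one concentration (screen) or a series (IC50). Insulin stimulation followed at […] final for 30 min; lysates assayed by ELISA-One sandwich immunoassay with fluorescence read-out.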
For orientation: ELISA stands for enzyme-linked immunosorbent assay.

The next assay concerns the target T2, mTOR kinase (Homo sapiens, UniProt P42345).
T2 construct: made in house
The assay is described as follows: mTOR kinase assay. The assay is classed as biochemical. Conditions: in vitro enzyme activity assay; ATP 100 μM; read-out: mTOR enzyme activity_IC50. The protocol: 2. Experimental Procedures and Methods of the mTOR Kinase Assay
The objective was to evaluate the inhibitory effect of the subject samples on the mTOR kinase activity at molecular level.
as §1
The mTOR Kinase Assay (384 wells) was purchased from PerkinElmer company; the mTOR kinase was made in our lab.
Each solution was prepared according to the instructions provided in the mTOR Kinase Assay. The kinase reaction was carried out in white 384-well plates (Proxiplate-384 plus). 2.5 μl of DMSO (the concentration was consistent with the highest concentration of DMSO for the test compounds) was added to each of the two control wells with and without enzyme, and then 2.5 μl of a series of different concentrations of the test compounds was added to each test well. ULight-4E-BP1 (Thr37/46) PeptideATP mix (the final concentration of ATP was 100 μM) and 5 μl of mTOR kinase were added to the control well containing enzyme as well as the test wells, and fully mixed. The plate was sealed with Parafilm and incubated for 2 h. Then 5 μl of stop solution was added and incubated for 5 minutes. Afterwards, 5 μl of Detection Mix (Eu-anti-phospho-4E-BP1 (Thr37/46) Antibody, the final concentration was 2 nM) was added and incubated for 1 h, and then the mixture was detected.
as §2

T1 sequence (P42336 whole entry): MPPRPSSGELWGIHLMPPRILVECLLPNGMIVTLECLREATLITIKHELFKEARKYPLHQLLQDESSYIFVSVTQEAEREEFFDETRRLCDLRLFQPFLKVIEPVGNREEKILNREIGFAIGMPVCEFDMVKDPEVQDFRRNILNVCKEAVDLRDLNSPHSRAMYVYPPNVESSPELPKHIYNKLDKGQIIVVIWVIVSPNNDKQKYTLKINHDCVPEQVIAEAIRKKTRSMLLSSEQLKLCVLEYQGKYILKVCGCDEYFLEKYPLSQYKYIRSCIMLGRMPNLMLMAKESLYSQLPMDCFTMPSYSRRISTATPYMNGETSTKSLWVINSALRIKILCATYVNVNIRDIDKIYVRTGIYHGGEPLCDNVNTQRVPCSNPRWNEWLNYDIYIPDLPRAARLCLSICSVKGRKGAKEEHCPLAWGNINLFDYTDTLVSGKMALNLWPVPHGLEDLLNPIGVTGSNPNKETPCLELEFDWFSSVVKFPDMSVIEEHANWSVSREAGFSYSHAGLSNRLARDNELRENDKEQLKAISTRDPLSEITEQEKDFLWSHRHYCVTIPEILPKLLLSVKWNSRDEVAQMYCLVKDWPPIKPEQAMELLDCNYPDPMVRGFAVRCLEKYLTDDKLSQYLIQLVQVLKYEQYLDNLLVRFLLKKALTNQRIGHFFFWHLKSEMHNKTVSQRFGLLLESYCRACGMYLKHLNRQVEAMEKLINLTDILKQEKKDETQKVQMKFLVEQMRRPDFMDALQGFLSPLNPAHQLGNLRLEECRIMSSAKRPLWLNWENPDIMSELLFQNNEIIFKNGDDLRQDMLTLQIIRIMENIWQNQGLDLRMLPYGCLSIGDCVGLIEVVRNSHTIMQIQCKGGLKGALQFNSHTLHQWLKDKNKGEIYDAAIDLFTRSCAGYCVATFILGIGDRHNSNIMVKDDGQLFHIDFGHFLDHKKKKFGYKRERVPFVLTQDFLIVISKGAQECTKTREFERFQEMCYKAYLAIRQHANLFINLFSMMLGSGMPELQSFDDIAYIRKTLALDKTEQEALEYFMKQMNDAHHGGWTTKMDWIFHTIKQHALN

In the case of `COc1ncc(-c2ccc3nccc(=O)n3c2)cc1NS(=O)(=O)c1ccccc1Cl` [compound 30], the IC50 was not above 0.001 µM on PI3K (p110α) kinase, not above 0.05 µM in the assay with MCF-7 cells (read-out: IC50 p-AKT), 0.05 to 0.1 µM with MCF-7 cells (read-out: IC50 p-p70S6K) and 0.01 to 0.05 µM at mTOR kinase. For the same molecule, the inhibition at 1 µM was 95% in the assay on MCF-7 cells (read-out: % inhibition AKT) and 93.4% with MCF-7 cells (read-out: % inhibition p70s6k).

With `COc1ncc(-c2ccc3ncc(Cl)c(=O)n3c2)cc1NS(=O)(=O)c1ccc(F)cc1F` [compound 132, N-(5-(3-chloro-4-oxo-4H-pyrido[1,2-a]pyrimidin-7-yl)-2-methoxypyridin-3-yl)-2,4-difluorobenzsulfamide], the IC50 at PI3K (p110α) kinase is 0.001 to 0.01 µM; in the assay on MCF-7 cells (read-out: IC50 p-AKT) it was not above 0.05 µM; in the assay on MCF-7 cells (read-out: IC50 p-p70S6K), 0.1 to 0.25 µM; on mTOR kinase, 0.001 to 0.01 µM. Moreover, the inhibition at 0.5 µM in the assay on MCF-7 cells (read-out: % inhibition AKT) came to 93%; in the assay on MCF-7 cells (read-out: % inhibition p70s6k), 88.8%.

Take `COc1ncc(-c2ccc3nccc(=O)n3c2)cc1NS(=O)(=O)c1ccc(F)cc1F` [compound 1, 2,4-difluoro-N-(2-methoxy-5-(4-oxo-4H-pyrido[1,2-a]pyrimidin-7-yl)pyridin-3-yl)benzsulfamide]: the IC50 at PI3K (p110α) kinase is 0.001 to 0.01 µM; in the assay with MCF-7 cells (read-out: IC50 p-AKT), not above 0.05 µM; in the assay with MCF-7 cells (read-out: IC50 p-p70S6K), 0.05 to 0.1 µM; at mTOR kinase, 0.01 to 0.05 µM. The inhibition at 1 µM amounted to 97.5% in the assay with MCF-7 cells (read-out: % inhibition AKT) and 42.4% with MCF-7 cells (read-out: % inhibition p70s6k).

With `COc1ncc(-c2ccc3nccc(=O)n3c2)cc1NS(=O)(=O)c1ccc(Cl)s1` [compound 36], the IC50 at PI3K (p110α) kinase was 0.001 to 0.01 µM; in the assay on MCF-7 cells (read-out: IC50 p-AKT), not above 0.05 µM; in the assay on MCF-7 cells (read-out: IC50 p-p70S6K) it was not above 0.05 µM; on mTOR kinase, 0.001 to 0.01 µM. Also, the inhibition at 0.5 µM with MCF-7 cells (read-out: % inhibition AKT) is 96.4%; in the assay on MCF-7 cells (read-out: % inhibition p70s6k) it was 94.7%.

Regarding `CCOc1cnc2ccc(-c3cnc(OC)c(NS(=O)(=O)c4ccc(Cl)s4)c3)cn2c1=O` [compound 174], the IC50 is not above 0.001 µM on PI3K (p110α) kinase, not above 0.05 µM in the assay on MCF-7 cells (read-out: IC50 p-AKT), not above 0.05 µM with MCF-7 cells (read-out: IC50 p-p70S6K) and 0.05 to 0.1 µM on mTOR kinase. In addition, the inhibition at 0.25 µM in the assay with MCF-7 cells (read-out: % inhibition AKT) worked out at 92.5%; in the assay with MCF-7 cells (read-out: % inhibition p70s6k), 78.4%.

For `COc1ncc(-c2ccc3ncc(OCCCF)c(=O)n3c2)cc1NS(=O)(=O)c1ccc(F)cc1Cl` [compound 243], the figures for the IC50 on PI3K (p110α) kinase and in the assay on MCF-7 cells (read-out: IC50 p-AKT) were not above 0.001 µM and not above 0.05 µM, respectively.

`COc1ncc(-c2ccc3ncc(Cl)c(=O)n3c2)cc1NS(=O)(=O)c1ccc(F)cc1Cl` [compound 135]: the IC50 on PI3K (p110α) kinase was not above 0.001 µM; with MCF-7 cells (read-out: IC50 p-AKT), not above 0.05 µM; with MCF-7 cells (read-out: IC50 p-p70S6K), 0.05 to 0.1 µM; on mTOR kinase it was 0.001 to 0.01 µM. For the same molecule, the inhibition at 0.5 µM with MCF-7 cells (read-out: % inhibition AKT) turned out to be 95.2%; with MCF-7 cells (read-out: % inhibition p70s6k) it was 87.6%.

Regarding `COCCOc1cnc2ccc(-c3cnc(OC)c(NS(=O)(=O)c4cc(C)ccc4C)c3)cn2c1=O` [compound 262], the IC50 on PI3K (p110α) kinase was not above 0.001 µM; in the assay with MCF-7 cells (read-out: IC50 p-AKT), 0.05 to 0.1 µM.

On to `COc1ncc(-c2ccc3ncc(Cl)c(=O)n3c2)cc1NS(=O)(=O)c1sc(C)nc1C` [compound 153], for which the IC50 was not above 0.001 µM at PI3K (p110α) kinase, not above 0.05 µM in the assay with MCF-7 cells (read-out: IC50 p-AKT), not above 0.05 µM in the assay with MCF-7 cells (read-out: IC50 p-p70S6K) and 0.001 to 0.01 µM at mTOR kinase. Moreover, the inhibition at 0.25 µM in the assay with MCF-7 cells (read-out: % inhibition AKT) came out at 91.6%; in the assay on MCF-7 cells (read-out: % inhibition p70s6k) it was 83.5%.

`COc1ncc(-c2ccc3nccc(=O)n3c2)cc1NS(=O)(=O)c1ccc(F)cc1Cl` [compound 25]: the IC50 on PI3K (p110α) kinase was 0.001 to 0.01 µM; in the assay on MCF-7 cells (read-out: IC50 p-AKT), not above 0.05 µM; with MCF-7 cells (read-out: IC50 p-p70S6K) it was 0.05 to 0.1 µM; at mTOR kinase it was 0.01 to 0.05 µM. The inhibition at 1 µM in the assay on MCF-7 cells (read-out: % inhibition AKT) amounted to 95.1%; with MCF-7 cells (read-out: % inhibition p70s6k), 94.1%.

One may read the inhibition as the drop in the measured response relative to a control, in per cent.
